# Laboratory results from ChEMBL document CHEMBL4507266, “Data for DCP probe BAY-784” (2021).
# How the values were obtained:
# [1] = test system: Tyrosine-protein kinase ABL1 (Homo sapiens), P00519 [Q252H]; settings: Compound concentration 1000.0 nM
# [2] = test system: ALK tyrosine kinase receptor (Homo sapiens), Q9UM73 [C1156Y]; settings: Compound concentration 1000.0 nM
# [3] = target: Serine/threonine-protein kinase B-raf (Homo sapiens) (UniProt P15056); settings: Compound concentration 1000.0 nM
# [4] = target: Calcium/calmodulin-dependent protein kinase kinase 1 (Homo sapiens) (UniProt Q8N5S9); settings: Compound concentration 1000.0 nM
# [5] = target: Cyclin-dependent kinase 11B (Homo sapiens) (UniProt P21127); settings: Compound concentration 1000.0 nM
# Chain of Cyclin-dependent kinase 11B (Homo sapiens) (P21127 whole entry): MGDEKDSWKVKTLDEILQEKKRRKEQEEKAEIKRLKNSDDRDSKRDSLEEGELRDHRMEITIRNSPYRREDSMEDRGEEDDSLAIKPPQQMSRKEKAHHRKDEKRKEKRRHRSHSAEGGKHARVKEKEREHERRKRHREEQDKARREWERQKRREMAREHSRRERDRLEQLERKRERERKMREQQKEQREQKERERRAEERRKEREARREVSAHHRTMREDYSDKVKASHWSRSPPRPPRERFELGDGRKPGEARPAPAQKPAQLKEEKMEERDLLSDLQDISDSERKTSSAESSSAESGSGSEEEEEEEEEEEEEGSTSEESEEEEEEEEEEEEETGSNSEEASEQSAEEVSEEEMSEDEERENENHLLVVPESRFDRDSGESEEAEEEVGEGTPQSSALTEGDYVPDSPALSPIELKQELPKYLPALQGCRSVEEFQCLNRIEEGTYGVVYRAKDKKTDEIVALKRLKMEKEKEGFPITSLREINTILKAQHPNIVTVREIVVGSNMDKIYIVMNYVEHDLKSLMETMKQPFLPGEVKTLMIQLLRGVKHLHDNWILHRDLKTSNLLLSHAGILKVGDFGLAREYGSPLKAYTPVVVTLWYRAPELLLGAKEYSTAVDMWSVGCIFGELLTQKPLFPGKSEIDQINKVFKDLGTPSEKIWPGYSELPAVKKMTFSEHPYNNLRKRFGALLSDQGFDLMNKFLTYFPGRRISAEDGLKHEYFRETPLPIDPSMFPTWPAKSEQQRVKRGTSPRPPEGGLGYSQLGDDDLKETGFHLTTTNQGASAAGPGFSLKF
# [6] = target: Cyclin-dependent kinase-like 3 (Homo sapiens) (UniProt Q8IVW4); settings: Compound concentration 1000.0 nM
# [7] = target: Macrophage colony-stimulating factor 1 receptor (Homo sapiens) (UniProt P07333); settings: Compound concentration 1000.0 nM
# [8] = target: Dual specificity tyrosine-phosphorylation-regulated kinase 1A (Homo sapiens) (UniProt Q13627); settings: Compound concentration 1000.0 nM
# [9] = test system: Epidermal growth factor receptor (Homo sapiens), P00533 [UNDEFINED MUTATION]; settings: Compound concentration 1000.0 nM
# [10] = test system: Epidermal growth factor receptor (Homo sapiens), P00533 [L858R]; settings: Compound concentration 1000.0 nM
# [11] = target: Ephrin type-A receptor 7 (Homo sapiens) (UniProt Q15375); settings: Compound concentration 1000.0 nM
# [12] = target: Tyrosine-protein kinase Fgr (Homo sapiens) (UniProt P09769); settings: Compound concentration 1000.0 nM
# [13] = target: Beta-adrenergic receptor kinase 1 (Homo sapiens) (UniProt P25098); settings: Compound concentration 1000.0 nM
# [14] = target: Inhibitor of nuclear factor kappa-B kinase subunit beta (Homo sapiens) (UniProt O14920); settings: Compound concentration 1000.0 nM
# [15] = target: Insulin receptor (Homo sapiens) (UniProt P06213); settings: Compound concentration 1000.0 nM
# [16] = test system: Mast/stem cell growth factor receptor Kit (Homo sapiens), P10721 [V559D,T670I]; settings: Compound concentration 1000.0 nM
# Chain of Mast/stem cell growth factor receptor Kit (Homo sapiens), P10721 [V559D,T670I] (P10721 whole entry V559D/T670I): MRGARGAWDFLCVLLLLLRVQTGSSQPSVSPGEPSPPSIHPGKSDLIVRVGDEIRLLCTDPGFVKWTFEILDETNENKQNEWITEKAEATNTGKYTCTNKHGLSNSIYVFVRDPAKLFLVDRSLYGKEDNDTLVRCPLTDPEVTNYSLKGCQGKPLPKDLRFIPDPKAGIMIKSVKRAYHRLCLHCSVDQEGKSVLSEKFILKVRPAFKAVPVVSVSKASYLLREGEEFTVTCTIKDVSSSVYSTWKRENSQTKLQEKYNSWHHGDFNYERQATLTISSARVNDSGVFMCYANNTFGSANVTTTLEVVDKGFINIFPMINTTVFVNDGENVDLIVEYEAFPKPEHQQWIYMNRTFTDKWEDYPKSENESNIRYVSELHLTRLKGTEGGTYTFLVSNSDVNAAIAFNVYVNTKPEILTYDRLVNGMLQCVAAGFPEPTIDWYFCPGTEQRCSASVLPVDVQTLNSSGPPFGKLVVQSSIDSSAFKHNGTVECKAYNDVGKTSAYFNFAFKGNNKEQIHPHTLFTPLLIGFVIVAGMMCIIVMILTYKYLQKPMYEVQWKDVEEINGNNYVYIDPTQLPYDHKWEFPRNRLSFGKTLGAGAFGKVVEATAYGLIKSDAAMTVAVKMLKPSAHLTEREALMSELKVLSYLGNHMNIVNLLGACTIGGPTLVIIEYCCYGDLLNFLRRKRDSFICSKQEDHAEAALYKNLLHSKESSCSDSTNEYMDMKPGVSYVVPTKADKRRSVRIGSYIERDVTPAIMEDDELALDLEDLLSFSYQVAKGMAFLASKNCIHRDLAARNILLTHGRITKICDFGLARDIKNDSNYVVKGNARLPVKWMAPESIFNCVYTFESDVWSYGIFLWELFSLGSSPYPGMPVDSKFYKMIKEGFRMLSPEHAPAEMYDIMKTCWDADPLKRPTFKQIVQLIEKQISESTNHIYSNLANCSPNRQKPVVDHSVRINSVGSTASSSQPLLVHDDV
# [17] = target: Tyrosine-protein kinase Lck (Homo sapiens) (UniProt P06239); settings: Compound concentration 1000.0 nM
# [18] = target: Mitogen-activated protein kinase kinase kinase 3 (Homo sapiens) (UniProt Q99759); settings: Compound concentration 1000.0 nM
# [19] = target: Mitogen-activated protein kinase kinase kinase 4 (Homo sapiens) (UniProt Q9Y6R4); settings: Compound concentration 1000.0 nM
# [20] = target: Mitogen-activated protein kinase kinase kinase kinase 3 (Homo sapiens) (UniProt Q8IVH8); settings: Compound concentration 1000.0 nM
# [21] = target: Mitogen-activated protein kinase kinase kinase kinase 5 (Homo sapiens) (UniProt Q9Y4K4); settings: Compound concentration 1000.0 nM
# [22] = target: Dual specificity mitogen-activated protein kinase kinase 4 (Homo sapiens) (UniProt P45985); settings: Compound concentration 1000.0 nM
# [23] = target: Maternal embryonic leucine zipper kinase (Homo sapiens) (UniProt Q14680); settings: Compound concentration 1000.0 nM
# [24] = target: Hepatocyte growth factor receptor (Homo sapiens) (UniProt P08581); settings: Compound concentration 1000.0 nM
# [25] = test system: Hepatocyte growth factor receptor (Homo sapiens), P08581 [M1250T]; settings: Compound concentration 1000.0 nM
# [26] = target: Serine/threonine-protein kinase 26 (Homo sapiens) (UniProt Q9P289); settings: Compound concentration 1000.0 nM
# Chain of Serine/threonine-protein kinase 26 (Homo sapiens) (Q9P289 2-416 limits assumed): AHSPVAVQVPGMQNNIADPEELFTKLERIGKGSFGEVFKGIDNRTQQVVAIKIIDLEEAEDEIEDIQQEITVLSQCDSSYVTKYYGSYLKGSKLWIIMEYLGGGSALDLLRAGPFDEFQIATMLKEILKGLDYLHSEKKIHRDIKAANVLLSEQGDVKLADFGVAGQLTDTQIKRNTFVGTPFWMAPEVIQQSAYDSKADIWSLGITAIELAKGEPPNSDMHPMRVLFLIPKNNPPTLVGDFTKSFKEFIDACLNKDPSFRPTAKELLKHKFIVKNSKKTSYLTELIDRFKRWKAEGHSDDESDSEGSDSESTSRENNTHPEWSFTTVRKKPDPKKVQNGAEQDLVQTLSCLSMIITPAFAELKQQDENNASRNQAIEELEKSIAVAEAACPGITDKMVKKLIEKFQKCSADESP
# [27] = target: Muscle, skeletal receptor tyrosine-protein kinase (Homo sapiens) (UniProt O15146); settings: Compound concentration 1000.0 nM
# [28] = target: Myosin-IIIa (Homo sapiens) (UniProt Q8NEV4); settings: Compound concentration 1000.0 nM
# [29] = target: Serine/threonine-protein kinase Nek11 (Homo sapiens) (UniProt Q8NG66); settings: Compound concentration 1000.0 nM
# [30] = target: Serine/threonine-protein kinase NLK (Homo sapiens) (UniProt Q9UBE8); settings: Compound concentration 1000.0 nM
# [31] = target: Serine/threonine-protein kinase OSR1 (Homo sapiens) (UniProt O95747); settings: Compound concentration 1000.0 nM
# [32] = target: Mitogen-activated protein kinase 14 (Homo sapiens) (UniProt Q16539); settings: Compound concentration 1000.0 nM
# [33] = target: Mitogen-activated protein kinase 13 (Homo sapiens) (UniProt O15264); settings: Compound concentration 1000.0 nM
# [34] = target: Serine/threonine-protein kinase PAK 6 (Homo sapiens) (UniProt Q9NQU5); settings: Compound concentration 1000.0 nM
# Chain of Serine/threonine-protein kinase PAK 6 (Homo sapiens) (Q9NQU5 whole entry, looked up, canonical isoform): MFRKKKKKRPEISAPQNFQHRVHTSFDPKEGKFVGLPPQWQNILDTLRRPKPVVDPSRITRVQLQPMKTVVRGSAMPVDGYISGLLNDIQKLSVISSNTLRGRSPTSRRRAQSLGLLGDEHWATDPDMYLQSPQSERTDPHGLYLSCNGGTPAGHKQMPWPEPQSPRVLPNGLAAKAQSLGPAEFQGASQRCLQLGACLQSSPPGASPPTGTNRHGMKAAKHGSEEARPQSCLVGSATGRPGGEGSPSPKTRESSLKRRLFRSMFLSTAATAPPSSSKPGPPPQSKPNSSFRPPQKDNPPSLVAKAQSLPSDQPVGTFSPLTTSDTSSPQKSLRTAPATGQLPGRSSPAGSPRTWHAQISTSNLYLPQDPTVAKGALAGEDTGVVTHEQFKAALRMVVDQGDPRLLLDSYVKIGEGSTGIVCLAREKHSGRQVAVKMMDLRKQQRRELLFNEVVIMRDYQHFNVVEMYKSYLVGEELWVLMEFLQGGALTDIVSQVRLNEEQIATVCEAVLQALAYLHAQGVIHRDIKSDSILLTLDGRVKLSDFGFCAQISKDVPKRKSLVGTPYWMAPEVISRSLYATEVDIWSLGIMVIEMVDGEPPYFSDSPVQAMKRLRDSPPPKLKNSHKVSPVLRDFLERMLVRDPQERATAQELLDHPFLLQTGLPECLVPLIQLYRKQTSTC
# [35] = test system: Phosphatidylinositol 4,5-bisphosphate 3-kinase catalytic subunit alpha isoform (Homo sapiens), P42336 [I800L]; settings: Compound concentration 1000.0 nM
# [36] = target: Serine/threonine-protein kinase pim-3 (Homo sapiens) (UniProt Q86V86); settings: Compound concentration 1000.0 nM
# [37] = target: Protein kinase C iota type (Homo sapiens) (UniProt P41743); settings: Compound concentration 1000.0 nM
# [38] = target: Protein-tyrosine kinase 2-beta (Homo sapiens) (UniProt Q14289); settings: Compound concentration 1000.0 nM
# [39] = target: Tyrosine-protein kinase SYK (Homo sapiens) (UniProt P43405); settings: Compound concentration 1000.0 nM
# [40] = target: Serine/threonine-protein kinase TAO2 (Homo sapiens) (UniProt Q9UL54); settings: Compound concentration 1000.0 nM
# [41] = target: Serine/threonine-protein kinase TBK1 (Homo sapiens) (UniProt Q9UHD2); settings: Compound concentration 1000.0 nM
# [42] = target: Non-receptor tyrosine-protein kinase TYK2 (Homo sapiens) (UniProt P29597); settings: Compound concentration 1000.0 nM
# [43] = target: Serine/threonine-protein kinase 25 (Homo sapiens) (UniProt O00506); settings: Compound concentration 1000.0 nM
# [44] = target: Kappa-type opioid receptor (Homo sapiens) (UniProt P41145); settings: Compound concentration 10.0 uM
# Chain of Kappa-type opioid receptor (Homo sapiens) (P41145 whole entry): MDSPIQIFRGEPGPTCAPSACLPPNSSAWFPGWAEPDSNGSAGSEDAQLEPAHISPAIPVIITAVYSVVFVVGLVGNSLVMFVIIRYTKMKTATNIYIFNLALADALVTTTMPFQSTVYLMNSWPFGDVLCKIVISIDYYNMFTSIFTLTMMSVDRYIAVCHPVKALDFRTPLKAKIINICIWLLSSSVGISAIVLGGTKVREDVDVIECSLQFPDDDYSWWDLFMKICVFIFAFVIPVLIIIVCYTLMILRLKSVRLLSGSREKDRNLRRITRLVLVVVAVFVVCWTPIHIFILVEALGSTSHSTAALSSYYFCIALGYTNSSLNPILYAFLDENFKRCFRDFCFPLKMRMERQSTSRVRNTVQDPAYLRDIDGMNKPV
# [45] = target: Histamine H4 receptor (Homo sapiens) (UniProt Q9H3N8); settings: Compound concentration 10.0 uM
# Chain of ALK tyrosine kinase receptor (Homo sapiens), Q9UM73 [C1156Y] (Q9UM73 whole entry C1156Y, looked up): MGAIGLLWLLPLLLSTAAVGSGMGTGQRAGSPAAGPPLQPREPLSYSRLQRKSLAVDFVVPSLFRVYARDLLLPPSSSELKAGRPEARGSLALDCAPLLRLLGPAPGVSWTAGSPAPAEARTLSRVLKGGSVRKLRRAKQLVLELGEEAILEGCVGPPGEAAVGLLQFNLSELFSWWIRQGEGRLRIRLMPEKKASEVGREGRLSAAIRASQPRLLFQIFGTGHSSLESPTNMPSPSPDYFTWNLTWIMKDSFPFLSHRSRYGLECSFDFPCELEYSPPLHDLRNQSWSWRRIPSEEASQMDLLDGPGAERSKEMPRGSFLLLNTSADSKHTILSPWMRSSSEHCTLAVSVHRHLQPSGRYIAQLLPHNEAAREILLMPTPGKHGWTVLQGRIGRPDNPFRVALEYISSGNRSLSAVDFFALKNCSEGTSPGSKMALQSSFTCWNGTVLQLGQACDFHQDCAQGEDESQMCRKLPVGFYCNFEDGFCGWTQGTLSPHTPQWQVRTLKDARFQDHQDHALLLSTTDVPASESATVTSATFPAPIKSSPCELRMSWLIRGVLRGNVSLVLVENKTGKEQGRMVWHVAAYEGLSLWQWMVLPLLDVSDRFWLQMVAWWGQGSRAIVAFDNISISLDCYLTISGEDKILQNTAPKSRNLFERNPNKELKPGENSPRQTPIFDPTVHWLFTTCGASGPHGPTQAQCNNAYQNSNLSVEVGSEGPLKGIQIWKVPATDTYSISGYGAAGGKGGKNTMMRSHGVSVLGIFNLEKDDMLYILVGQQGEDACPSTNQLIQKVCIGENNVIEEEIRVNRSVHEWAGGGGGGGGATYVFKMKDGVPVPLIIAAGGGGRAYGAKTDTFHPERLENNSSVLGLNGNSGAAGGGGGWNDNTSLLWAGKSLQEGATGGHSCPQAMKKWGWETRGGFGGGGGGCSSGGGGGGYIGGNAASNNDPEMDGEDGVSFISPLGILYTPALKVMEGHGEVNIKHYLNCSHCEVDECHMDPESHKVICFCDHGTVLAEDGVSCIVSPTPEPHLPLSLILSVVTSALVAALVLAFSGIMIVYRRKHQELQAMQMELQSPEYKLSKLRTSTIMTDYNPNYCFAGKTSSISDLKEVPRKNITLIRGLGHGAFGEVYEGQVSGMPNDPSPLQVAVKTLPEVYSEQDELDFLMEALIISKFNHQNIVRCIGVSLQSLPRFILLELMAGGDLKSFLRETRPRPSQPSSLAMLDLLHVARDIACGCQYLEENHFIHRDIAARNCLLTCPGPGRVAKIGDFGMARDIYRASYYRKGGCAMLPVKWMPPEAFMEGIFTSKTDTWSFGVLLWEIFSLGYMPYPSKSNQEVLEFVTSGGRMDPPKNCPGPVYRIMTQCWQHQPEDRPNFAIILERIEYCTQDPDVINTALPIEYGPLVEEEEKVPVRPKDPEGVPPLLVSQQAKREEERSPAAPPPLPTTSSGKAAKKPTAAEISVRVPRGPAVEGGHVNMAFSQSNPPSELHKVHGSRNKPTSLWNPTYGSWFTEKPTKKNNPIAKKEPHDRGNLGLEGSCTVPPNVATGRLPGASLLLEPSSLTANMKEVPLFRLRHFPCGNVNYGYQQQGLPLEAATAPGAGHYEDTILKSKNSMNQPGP
structure (smiles),measurement,setting,value
O=C(NCc1ncc(C(F)(F)F)cc1Cl)c1ccc2c(c1)C1(CCS(=O)(=O)CC1)[C@H](C1CC1)N2S(=O)(=O)c1ccc(F)cc1 [BAY-784],residual activity,[1],100%
same,residual activity,[2],82%
same,residual activity,[3],91%
same,residual activity,[4],100%
same,residual activity,[5],100%
same,residual activity,[6],100%
same,residual activity,[7],100%
same,residual activity,[8],88%
same,residual activity,[9],100%
same,residual activity,[10],94%
same,residual activity,[11],100%
same,residual activity,[12],100%
same,residual activity,[13],56%
same,residual activity,[14],92%
same,residual activity,[15],100%
same,residual activity,[16],100%
same,residual activity,[17],100%
same,residual activity,[18],74%
same,residual activity,[19],100%
same,residual activity,[20],100%
same,residual activity,[21],82%
same,residual activity,[22],75%
same,residual activity,[23],54%
same,residual activity,[24],100%
same,residual activity,[25],89%
same,residual activity,[26],100%
same,residual activity,[27],100%
same,residual activity,[28],100%
same,residual activity,[29],100%
same,residual activity,[30],100%
same,residual activity,[31],87%
same,residual activity,[32],100%
same,residual activity,[33],99%
same,residual activity,[34],100%
same,residual activity,[35],78%
same,residual activity,[36],100%
same,residual activity,[37],81%
same,residual activity,[38],100%
same,residual activity,[39],100%
same,residual activity,[40],81%
same,residual activity,[41],80%
same,residual activity,[42],92%
same,residual activity,[43],100%
same,inhibition,[44],14.4%
same,inhibition,[45],-9.53%
O=C(NCc1ncc(C(F)(F)F)cc1Cl)c1ccc2c(c1)C1(CCS(=O)(=O)CC1)[C@@H](C1CC1)N2S(=O)(=O)c1ccc(F)cc1 [BAY-786],residual activity,[1],100%
same,residual activity,[2],100%
same,residual activity,[3],96%
same,residual activity,[4],72%
same,residual activity,[5],100%
same,residual activity,[6],100%
same,residual activity,[7],74%
same,residual activity,[8],85%
same,residual activity,[9],85%
same,residual activity,[10],100%
same,residual activity,[11],100%
same,residual activity,[12],93%
same,residual activity,[13],80%
same,residual activity,[14],86%
same,residual activity,[15],100%
same,residual activity,[16],87%
same,residual activity,[17],100%
same,residual activity,[18],60%
same,residual activity,[19],84%
same,residual activity,[20],100%
same,residual activity,[21],100%
same,residual activity,[22],76%
same,residual activity,[23],100%
same,residual activity,[24],81%
same,residual activity,[25],100%
same,residual activity,[26],82%
same,residual activity,[27],79%
same,residual activity,[28],100%
same,residual activity,[29],100%
same,residual activity,[30],89%
same,residual activity,[31],71%
same,residual activity,[32],100%
same,residual activity,[33],86%
same,residual activity,[34],100%
same,residual activity,[35],78%
same,residual activity,[36],85%
same,residual activity,[37],100%
same,residual activity,[38],100%
same,residual activity,[39],100%
same,residual activity,[40],64%
same,residual activity,[41],84%
same,residual activity,[42],46%
same,residual activity,[43],99%
same,inhibition,[44],4.54%
same,inhibition,[45],-6.68%
